Biological target: T1, AR (Homo sapiens, UniProt P10275, T878A)
T1 sequence (P10275 1-920 T878A): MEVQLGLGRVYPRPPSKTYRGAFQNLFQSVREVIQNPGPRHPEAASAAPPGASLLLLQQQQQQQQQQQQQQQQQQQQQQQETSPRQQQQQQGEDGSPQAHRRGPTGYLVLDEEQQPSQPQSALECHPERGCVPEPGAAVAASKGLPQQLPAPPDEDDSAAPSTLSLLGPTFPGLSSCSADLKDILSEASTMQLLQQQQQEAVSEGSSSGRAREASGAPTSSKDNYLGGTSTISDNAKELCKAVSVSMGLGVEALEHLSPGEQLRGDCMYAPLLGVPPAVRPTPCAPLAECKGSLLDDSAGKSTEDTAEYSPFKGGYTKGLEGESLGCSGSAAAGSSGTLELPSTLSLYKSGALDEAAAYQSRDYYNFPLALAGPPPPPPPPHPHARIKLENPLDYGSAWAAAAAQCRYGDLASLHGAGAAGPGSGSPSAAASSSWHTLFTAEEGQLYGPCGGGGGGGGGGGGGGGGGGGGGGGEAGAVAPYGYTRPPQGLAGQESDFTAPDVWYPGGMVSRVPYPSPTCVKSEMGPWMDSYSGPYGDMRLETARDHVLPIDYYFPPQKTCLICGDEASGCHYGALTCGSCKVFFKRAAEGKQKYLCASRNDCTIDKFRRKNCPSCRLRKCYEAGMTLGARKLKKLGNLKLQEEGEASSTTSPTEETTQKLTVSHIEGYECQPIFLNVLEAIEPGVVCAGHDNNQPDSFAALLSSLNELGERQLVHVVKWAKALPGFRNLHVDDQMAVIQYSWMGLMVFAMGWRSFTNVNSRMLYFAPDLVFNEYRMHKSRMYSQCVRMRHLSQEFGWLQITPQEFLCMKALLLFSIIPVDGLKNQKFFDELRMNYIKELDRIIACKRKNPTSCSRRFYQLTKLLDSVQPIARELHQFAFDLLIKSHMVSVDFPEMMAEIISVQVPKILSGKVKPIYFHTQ
Test: Degradation effect on AR protein activity in prostate cancer cell line Lncap by ELISA method
Type: cell-based
Parameters: Degradation Effect of Compounds on AR Protein Activity in Prostate Cancer Cell Line Lncap by ELISA Method; endogenous in cells; host or cells: LNCaP
Details: 24 hours, Total Androgen Receptor Sandwich ELISA, read-out: IC50 (the drug concentration at 50% inhibition) of AR protein
Method: Activity Assay Example 6: Determination of the Degradation Effect of Compounds on AR Protein Activity in Prostate Cancer Cell Line Lncap by ELISA Method
• LNCaP: 1.5*10^LNCaP (human prostate cancer) was purchased from the Chinese Academy of Sciences Cell Bank and cultured in RPMI-1640 medium containing 10% fetal bovine serum. Lncap cells were cultured at 37° C. and 5% CO2 in a humidified incubator. When the coverage reached about 80%, the cells were passaged at a ratio of 1:3. • ELISA kit: Total Androgen Receptor Sandwich ELISA Kit (Brand CST, Cat #12850). 2. Test Method 2.1 Cell Plating
After the cells were centrifuged, they were diluted to 1.5×10^4 cells/100 ul with fresh medium and plated into a 96-well plate with 100 ul per well.
Test compound preparation: The compounds were weighed and diluted with DMSO to stock solution with a concentration of 10 mM for later use. According to the experimental requirements, the drug was diluted from 2 uM, 3 fold dilution for 10 point series, and finally 2 μl of the drug was added to each well, and 2 μl of DMSO was added to the control group.
2.3 After 24 hours, the medium was removed, and the cells were washed once with ice-cold 1×PBS. Then the PBS was removed, and 0.5 ml ice-cold 1× Cell Lysis Buffer containing 1 mM PMSF was added to each well plate and incubated on ice for 20 minutes. […]

## Cc1ncsc1-c1ccc(CNC(=O)[C@@H]2C[C@@H](O)CN2C(=O)[C@@H](NC(=O)COCCCCOc2ccc(-c3ccc(N4C(=S)N(c5ccc(C#N)c(C(F)(F)F)c5F)C(=O)C4(C)C)cn3)cc2)C(C)(C)C)cc1 [Compound A46]
  DC50: 49 nM

— patent publication US12606552B2, “Bifunctional compound, preparation method therefor, and use thereof” (SUZHOU KINTOR PHARMACEUTICALS, INC., priority 2020, dated 2026)
